Laboratory results taken from patent US20250082630A1, “METHODS OF TREATING BRAIN TUMOURS AND NEUROBLASTOMAS” (AstraZeneca AB, priority 2021, published 2025).
pIC50: −log10 of the molar value.

Assays:
Assay type in all cases: cell-based
[1] = system: BRCA2 (−/−) DLD1 cells; test: PARP proliferation assay (7 day compound dosing), BRCA2 (−/−) DLD1; conditions: Homo sapiens, DLD-1, 168 h, read-out: BRCA2 −/− DLD-1 prolif. 7 d IC50
Procedure: DLD1 and BRCA2 (−/−) DLD1 cells were harvested to a density of 5000 cells/ml and 2.5E4 cells/ml respectively in complete media, 40 μL/well seeded into 384-well plates (Greiner, Kremsmunster, Austria; 781090) using a Multidrop Combi then incubated at 37° C., 5% CO2 overnight. Next day (Day 1) using a Multidrop Combi add sytox green (5ul, 2 uM) and saponin (10 ul, 0.25% stock) to a day 0 plate, seal the plate using a black adhesive lid and incubate for >3 h at it. Cells were imaged using Cell Insight (Thermo Fisher) fitted with a 4x objective. Test compounds are added using an Echo 555 and placed in incubator maintained at 37° C., 5% CO2 and incubated for 7 days. On Day 8 add sytox green (5ul, 2 uM) and then saponin (10 ul, 0.25% stock) to plates, seal the plate using a black adhesive lid and incubate for >3 h at it. Read all cells on the Cell Insight with 4× Objective. The rate of proliferation is determined in Genedata by assessing the total cell number output from the Cell Insight for Day 0 and Day 8 plates.

[2] = system: BT245 H3K27M paediatric glioma cells; test: Combination assay PARP inhibitor with ionizing radiation (colony formation); conditions: 0.9 Gy, multiple doses of the inhibitor
Procedure: DMSO served as a vehicle control. […] Next, cells were fixed and stained using the Sulforhodamin B acid form (SRB) [Sigma, 341738-5g] reconstituted in 1% Acetic Acid as the stain is added straight after fixation without any washing step which limits cell detachment. Plates with stained colonies were scanned with the GelCount colony counter (Oxford OPTRONIX) at 600 dpi resolution. Colony formation was scored by quantifying the total optical density measured with ImageJ software, using a 24-well plate Region of Interest (ROI) mask (CFU, colony formation units). Data analysis was performed by normalisation on the vehicle treated of the respective plate set as =100. […] In the represented plots error bars are mean±SD.

[3] = system: U87 IDH1mt ATRXwt; test: Monotherapy treatment, U87 IDH1mt ATRXwt; conditions: read-out: Compound 20 IC50
Procedure: (§1) To evaluate the activity and potency of the PARP inhibitors described herein in combination with the standard of care chemotherapy Temozolamide (TMZ), ionizing radiation (IR) and the emerging chemotherapy VAL-083, U87, SJG2 and BT245 glioblastoma cells were assayed. Parental U87 cell lines were obtained from the AstraZeneca Global Cell Bank in Alderley Park, UK and the isocistrate dehydrogenase 1 mutant cell line (IDH1 mt R1 32H) was licensed in from ATCC. The SJ-G2 (ATRX mutant) and BT245 (H3K27M mutant) cell lines were obtained from The Research Institute of the McGill University Health Centre, Montreal, QC H4A 3J1, Canada. IDH1R132 mutation was induced in SJG2 cell line to generated isogenic pair (SJG2 IDH1mt and SJG2 IDH1 wt). […]
(§2) For the nuclear count end point assay, cells were fixed for ˜15 minutes (min) by the addition of 50 μl per well of Formaldehyde (Sigma-Aldrich F8775). […] The images were acquired using CellInsight CX5 (Thermo Fisher) and analysed by measuring the total number of hoechst stained nuclei. The number of nuclei (% confluence) of the drug treated wells were normalised to the DMSO control and the growth inhibition was calculated using the combenefit software (Di Veroli et al., 2016).

[4] = system: U87 IDH1 wt; test: Combination assay PARP inhibitor with TMZ, U87 IDH1 wt
Procedure: as §1, §2

## CNC(=O)c1ccc(N2CCN(Cc3ccc4nc(C)c(=O)[nH]c4c3F)CC2)c(F)n1 [Example 20, 6-fluoro-5-[4-[(5-fluoro-2-methyl-3-oxo-4H-quinoxalin-6-yl)methyl]piperazin-1-yl]-N-methyl-pyridine-2-carboxamide]
[1]
  pIC50: 8.10
[2]
  combination effect with ionizing radiation: enhanced combination benefit
[3]
  pIC50: < 4.00
[4]
  concentration at which Compound 20 synergises with TMZ: 10 µM
